Experimental data as given in BigSolDB 2.1.

Compound: O=C(O)c1cccc(C(=O)O)c1
- solubility (mole fraction) (in isopropanol, 278.55 K): 0.00218
- solubility (mole fraction) (in isopropanol, 279.87 K): 0.00226
- solubility (mole fraction) (in isopropanol, 283.25 K): 0.00255
- solubility (mole fraction) (in isopropanol, 288.15 K): 0.00291
- solubility (mole fraction) (in isopropanol, 293.15 K): 0.00325
- solubility (mole fraction) (in isopropanol, 298.15 K): 0.00396
- solubility (mole fraction) (in isopropanol, 303.05 K): 0.00459
- solubility (mole fraction) (in isopropanol, 308.25 K): 0.00535
- solubility (mole fraction) (in isopropanol, 313.15 K): 0.00607
- solubility (mole fraction) (in isopropanol, 318.25 K): 0.00675
- solubility (mole fraction) (in methanol, 278.15 K): 0.00253
- solubility (mole fraction) (in methanol, 283.25 K): 0.00276
- solubility (mole fraction) (in methanol, 288.05 K): 0.00314
- solubility (mole fraction) (in methanol, 293.25 K): 0.00346
- solubility (mole fraction) (in methanol, 298.75 K): 0.00379
- solubility (mole fraction) (in methanol, 302.65 K): 0.00411
- solubility (mole fraction) (in methanol, 307.95 K): 0.00456
- solubility (mole fraction) (in n-butanol, 278.06 K): 0.00187
- solubility (mole fraction) (in n-butanol, 283.11 K): 0.00216
- solubility (mole fraction) (in n-butanol, 288.27 K): 0.00234
- solubility (mole fraction) (in n-butanol, 293.3 K): 0.00265
- solubility (mole fraction) (in n-butanol, 298.06 K): 0.00315
- solubility (mole fraction) (in n-butanol, 303.66 K): 0.00366
- solubility (mole fraction) (in n-butanol, 308.36 K): 0.00386
- solubility (mole fraction) (in n-butanol, 312.66 K): 0.00474
- solubility (mole fraction) (in n-butanol, 317.94 K): 0.0052
- solubility (mole fraction) (in n-hexanol, 298.48 K): 0.00244
- solubility (mole fraction) (in n-hexanol, 302.97 K): 0.0032
- solubility (mole fraction) (in n-hexanol, 308.15 K): 0.00362
- solubility (mole fraction) (in n-hexanol, 312.7 K): 0.00424
- solubility (mole fraction) (in n-hexanol, 317.67 K): 0.00477
- solubility (mole fraction) (in n-hexanol, 320.84 K): 0.00544
- solubility (mole fraction) (in n-pentanol, 303.05 K): 0.00408
- solubility (mole fraction) (in n-pentanol, 308.05 K): 0.00532
- solubility (mole fraction) (in n-pentanol, 313.15 K): 0.00594
- solubility (mole fraction) (in n-pentanol, 318.15 K): 0.00651
- solubility (mole fraction) (in n-pentanol, 323.05 K): 0.0074
- solubility (mole fraction) (in n-propanol, 278.15 K): 0.00169
- solubility (mole fraction) (in n-propanol, 280.84 K): 0.0019
- solubility (mole fraction) (in n-propanol, 283.34 K): 0.0022
- solubility (mole fraction) (in n-propanol, 288.17 K): 0.00249
- solubility (mole fraction) (in n-propanol, 293.15 K): 0.00268
- solubility (mole fraction) (in n-propanol, 298.35 K): 0.0032
- solubility (mole fraction) (in n-propanol, 304.05 K): 0.00377
- solubility (mole fraction) (in n-propanol, 308.25 K): 0.00425
- solubility (mole fraction) (in n-propanol, 313.15 K): 0.00473
- solubility (mole fraction) (in n-propanol, 317.55 K): 0.00528
- solubility (mole fraction) (in sec-butanol, 283.05 K): 0.00145
- solubility (mole fraction) (in sec-butanol, 288.05 K): 0.00172
- solubility (mole fraction) (in sec-butanol, 293.15 K): 0.00209
- solubility (mole fraction) (in sec-butanol, 298.25 K): 0.00235
- solubility (mole fraction) (in sec-butanol, 303.45 K): 0.00263
- solubility (mole fraction) (in sec-butanol, 308.25 K): 0.00311
- solubility (mole fraction) (in sec-butanol, 313.25 K): 0.00346
- solubility (mole fraction) (in sec-butanol, 318.15 K): 0.00391
